Results published in PubChem BioAssay (NCI).
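Results reflect a 48-hour exposure of cells in 96-well plates to compound at five concentrations. TGI marks complete inhibition of growth.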

Assays:
Experiment in all cases: DTP human tumour cell line panel, 48 h
HCT-15 colon = tested on: HCT-15 colon
IGROV1 ovarian = tested on: IGROV1 ovarian
NCI-H23 lung = tested on: NCI-H23 lung
EKVX NSCLC = tested on: EKVX NSCLC
M14 melanoma = tested on: M14 melanoma
CCRF-CEM leukemia = tested on: CCRF-CEM leukemia
SF-295 CNS = tested on: SF-295 CNS
786-0 renal = tested on: 786-0 renal
DU-145 prostate = tested on: DU-145 prostate
U251 CNS = tested on: U251 CNS
SW-620 colon = tested on: SW-620 colon
PC-3 prostate = tested on: PC-3 prostate
NCI-H460 lung = tested on: NCI-H460 lung
HS 578T breast = tested on: HS 578T breast
A549 NSCLC = tested on: A549 NSCLC
KM12 colon = tested on: KM12 colon
SK-MEL-28 melanoma = tested on: SK-MEL-28 melanoma
HT29 colon = tested on: HT29 colon
RPMI-8226 leukemia = tested on: RPMI-8226 leukemia
T-47D breast = tested on: T-47D breast
OVCAR-3 ovarian = tested on: OVCAR-3 ovarian
OVCAR-4 ovarian = tested on: OVCAR-4 ovarian
UACC-257 melanoma = tested on: UACC-257 melanoma
HOP-92 NSCLC = tested on: HOP-92 NSCLC
OVCAR-8 ovarian = tested on: OVCAR-8 ovarian
SK-MEL-5 melanoma = tested on: SK-MEL-5 melanoma
HCT-116 colon = tested on: HCT-116 colon
CAKI-1 renal = tested on: CAKI-1 renal
MCF7 breast = tested on: MCF7 breast
RXF 393 renal = tested on: RXF 393 renal
MDA-MB-231 breast = tested on: MDA-MB-231 breast
TK-10 renal = tested on: TK-10 renal
SN12C renal = tested on: SN12C renal
MDA-MB-435 = tested on: MDA-MB-435
K-562 leukemia = tested on: K-562 leukemia
SR leukemia = tested on: SR leukemia
SF-268 CNS = tested on: SF-268 CNS
NCI-H226 lung = tested on: NCI-H226 lung
UACC-62 melanoma = tested on: UACC-62 melanoma
SK-OV-3 ovarian = tested on: SK-OV-3 ovarian
MDA-N = tested on: MDA-N
LOX IMVI melanoma = tested on: LOX IMVI melanoma
NCI/ADR-RES ovarian = tested on: NCI/ADR-RES ovarian
HL-60(TB) leukemia = tested on: HL-60(TB) leukemia
SF-539 CNS = tested on: SF-539 CNS
MOLT-4 leukemia = tested on: MOLT-4 leukemia
OVCAR-5 ovarian = tested on: OVCAR-5 ovarian
SNB-19 CNS = tested on: SNB-19 CNS
SNB-75 CNS = tested on: SNB-75 CNS
MALME-3M melanoma = tested on: MALME-3M melanoma
HOP-62 NSCLC = tested on: HOP-62 NSCLC
A498 renal = tested on: A498 renal
SK-MEL-2 melanoma = tested on: SK-MEL-2 melanoma
NCI-H522 lung = tested on: NCI-H522 lung
ACHN renal = tested on: ACHN renal
COLO 205 colon = tested on: COLO 205 colon
UO-31 renal = tested on: UO-31 renal
BT-549 breast = tested on: BT-549 breast
HCC-2998 colon = tested on: HCC-2998 colon

In the case of `COC(=O)C1(NC(=O)C(N)CC(=O)O)C(C)C1C` (centres undefined), the TGI (HCT-15 colon) was over 100 µM, the TGI (IGROV1 ovarian) was over 100 µM and the TGI (NCI-H23 lung) was over 100 µM. It also gave a TGI (EKVX NSCLC) of over 100 µM, a TGI (M14 melanoma) of over 100 µM and a TGI (CCRF-CEM leukemia) of over 100 µM. For the same compound, the TGI (SF-295 CNS) was over 100 µM, the TGI (786-0 renal) was over 100 µM and the TGI (DU-145 prostate) was over 100 µM. It also gave a TGI (U251 CNS) of over 100 µM, a TGI (SW-620 colon) of over 100 µM and a TGI (PC-3 prostate) of over 100 µM. The TGI (NCI-H460 lung) was over 100 µM, the TGI (HS 578T breast) was over 100 µM and the TGI (A549 NSCLC) was over 100 µM. The TGI (KM12 colon) was over 100 µM, the TGI (SK-MEL-28 melanoma) was over 100 µM and the TGI (HT29 colon) was over 100 µM. It also gave a TGI (RPMI-8226 leukemia) of over 100 µM, a TGI (T-47D breast) of over 100 µM and a TGI (OVCAR-3 ovarian) of over 100 µM. The TGI (OVCAR-4 ovarian) was over 100 µM, the TGI (UACC-257 melanoma) was over 100 µM and the TGI (HOP-92 NSCLC) was over 100 µM. It also gave a TGI (OVCAR-8 ovarian) of over 100 µM, a TGI (SK-MEL-5 melanoma) of over 100 µM and a TGI (HCT-116 colon) of over 100 µM. The TGI (CAKI-1 renal) was over 100 µM, the TGI (MCF7 breast) was over 100 µM and the TGI (RXF 393 renal) was over 100 µM. For the same compound, the TGI (MDA-MB-231 breast) was over 100 µM, the TGI (TK-10 renal) was over 100 µM and the TGI (SN12C renal) was over 100 µM. For the same compound, the TGI (MDA-MB-435) was over 100 µM, the TGI (K-562 leukemia) was over 100 µM and the TGI (SR leukemia) was over 100 µM. For the same compound, the TGI (SF-268 CNS) was over 100 µM, the TGI (NCI-H226 lung) was over 100 µM and the TGI (UACC-62 melanoma) was over 100 µM. It also gave a TGI (SK-OV-3 ovarian) of over 100 µM, a TGI (MDA-N) of over 100 µM and a TGI (LOX IMVI melanoma) of over 100 µM. For the same compound, the TGI (NCI/ADR-RES ovarian) was over 100 µM, the TGI (HL-60(TB) leukemia) was over 100 µM and the TGI (SF-539 CNS) was over 100 µM. It also gave a TGI (MOLT-4 leukemia) of over 100 µM, a TGI (OVCAR-5 ovarian) of over 100 µM and a TGI (SNB-19 CNS) of over 100 µM. The TGI (SNB-75 CNS) was over 100 µM, the TGI (MALME-3M melanoma) was over 100 µM and the TGI (HOP-62 NSCLC) was over 100 µM. The TGI (A498 renal) was over 100 µM, the TGI (SK-MEL-2 melanoma) was over 100 µM and the TGI (NCI-H522 lung) was over 100 µM. The TGI (ACHN renal) was over 100 µM, the TGI (COLO 205 colon) was over 100 µM and the TGI (UO-31 renal) was over 100 µM.

`COc1ccc(OC)c(CNc2ccc(O)c(C(=O)NCCc3ccc(F)cc3)c2)c1` gave a TGI (HCT-15 colon) of 44.9 µM, a TGI (IGROV1 ovarian) of 20.9 µM and a TGI (NCI-H23 lung) of over 100 µM. The TGI (EKVX NSCLC) was 65.6 µM, the TGI (M14 melanoma) was 26.8 µM and the TGI (CCRF-CEM leukemia) was over 100 µM. The TGI (SF-295 CNS) was 51.7 µM, the TGI (786-0 renal) was 68.4 µM and the TGI (DU-145 prostate) was 34.5 µM. It also gave a TGI (U251 CNS) of 24.9 µM, a TGI (SW-620 colon) of over 100 µM and a TGI (PC-3 prostate) of 32.1 µM. The TGI (NCI-H460 lung) was over 100 µM, the TGI (HS 578T breast) was over 100 µM and the TGI (A549 NSCLC) was over 100 µM. For the same compound, the TGI (KM12 colon) was 25.9 µM, the TGI (SK-MEL-28 melanoma) was 27.7 µM and the TGI (HT29 colon) was 47.5 µM. It also gave a TGI (BT-549 breast) of 73.6 µM, a TGI (RPMI-8226 leukemia) of 15.4 µM and a TGI (OVCAR-3 ovarian) of 28.8 µM. It also gave a TGI (OVCAR-4 ovarian) of 66.2 µM, a TGI (UACC-257 melanoma) of 41 µM and a TGI (OVCAR-8 ovarian) of 37.6 µM. The TGI (SK-MEL-5 melanoma) was 19.9 µM, the TGI (HCT-116 colon) was 27.1 µM and the TGI (CAKI-1 renal) was 87.9 µM. The TGI (MCF7 breast) was 59.2 µM, the TGI (MDA-MB-231 breast) was 21.7 µM and the TGI (TK-10 renal) was 94.9 µM. It also gave a TGI (SN12C renal) of 71.9 µM, a TGI (MDA-MB-435) of 8.34 µM and a TGI (K-562 leukemia) of 19.1 µM. The TGI (SR leukemia) was 12.1 µM, the TGI (SF-268 CNS) was 29.1 µM and the TGI (UACC-62 melanoma) was 25.7 µM. For the same compound, the TGI (SK-OV-3 ovarian) was 46.3 µM, the TGI (MDA-N) was 23 µM and the TGI (LOX IMVI melanoma) was 25.3 µM. The TGI (NCI/ADR-RES ovarian) was over 100 µM, the TGI (SF-539 CNS) was 35.7 µM and the TGI (MOLT-4 leukemia) was 21.5 µM. The TGI (OVCAR-5 ovarian) was 64.9 µM, the TGI (SNB-19 CNS) was 54.1 µM and the TGI (HCC-2998 colon) was 8.98 µM. It also gave a TGI (HOP-62 NSCLC) of 21.4 µM, a TGI (A498 renal) of 59.9 µM and a TGI (SK-MEL-2 melanoma) of 26.4 µM. For the same compound, the TGI (NCI-H522 lung) was 7.56 µM, the TGI (ACHN renal) was over 100 µM and the TGI (COLO 205 colon) was 40.2 µM. The TGI (UO-31 renal) was 24.8 µM.
